Source: patent US20240307382A1, “MODULATORS OF THE INTEGRATED STRESS PATHWAY” (Calico Life Sciences LLC, priority 2017, published 2024)

tested on: HEK293T cells carrying the ATF4 luciferase reporter; assay: ATF4-Luc assay (ATF4 luciferase reporter, tunicamycin-treated cells); format: cell-based; conditions: Homo sapiens, HEK-293T, 1 μg/mL tunicamycin, 7 hours
Procedure, shortened: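 A stable HEK293T reporter line was made by placing the full-length human ATF4 5′-UTR ahead of a firefly luciferase sequence without its start methionine, delivered by retroviral transduction and puromycin selection. Cells were seeded at 30,000 per well in polylysine-coated 384-well plates, exposed next day to 1 μg/mL tunicamycin plus compound for 7 hours, and luminescence was read with One Glo.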

`O=C(COc1cc(F)c2cn[nH]c2c1)NC12CCC(NC(=O)c3cnc(C(F)F)cn3)(CC1)[C@@H](O)C2` [Compound 1080, 5-(difluoromethyl)-N-[(2S)-4-{2-[(4-fluoro-1H-indazol-6-yl)oxy]acetamido}-2-hydroxybicyclo[2.2.2]octan-1-yl]pyrazine-2-carboxamide] and `O=C(COc1ccc(F)c(F)c1)NC12CCC(NC(=O)c3cc(C(F)F)no3)(CC1)C[C@@H]2O` [Compound 1100, 3-(difluoromethyl)-N-{(3S)-4-[2-(3,4-difluorophenoxy)acetamido]-3-hydroxybicyclo[2.2.2]octan-1-yl}-1,2-oxazole-5-carboxamide] fall in the same range of EC50: 0.05 to 0.25 µM for the first, 0.05 to 0.25 µM for the second.

First: Cc1onc(C(=O)NC23CC(NC(=O)COc4ccc(Cl)c(F)c4)(C2)C3)c1C(=O)Nc1ncc(C(F)(F)F)cc1Cl [Compound 1081, N^3-{3-[2-(4-chloro-3-fluorophenoxy)acetamido]bicyclo[1.1.1]pentan-1-yl}-N^4-[3-chloro-5-(trifluoromethyl)pyridin-2-yl]-5-methyl-1,2-oxazole-3,4-dicarboxamide]
Second: CN(C)C(=O)c1cccnc1C(=O)NC12CC(NC(=O)COc3ccc(Cl)c(F)c3)(C1)C2 [Compound 1088, N^2-{3-[2-(4-chloro-3-fluorophenoxy)acetamido]bicyclo[1.1.1]pentan-1-yl}-N^3,N^3-dimethylpyridine-2,3-dicarboxamide]
The EC50 of the first is higher: over 2 µM for the first, 1 to 2 µM for the second. The second is the more potent here.

First: O=C(COc1ccc(Cl)c(F)c1)NC12CCC(NC(=O)c3ccc4c(n3)CCCC4)(CC1)[C@@H](O)C2 [Compound 1082, N-{(2S)-4-[2-(4-chloro-3-fluorophenoxy)acetamido]-2-hydroxybicyclo[2.2.2]octan-1-yl}-5,6,7,8-tetrahydroquinoline-2-carboxamide]
Second: O=C(COc1ccc(Cl)c(F)c1)NC12CC(NC(=O)c3ccc4c(n3)CCCC4)(C1)C2 [Compound 1093, N-{3-[2-(4-chloro-3-fluorophenoxy)acetamido]bicyclo[1.1.1]pentan-1-yl]-5,6,7,8-tetrahydroquinoline-2-carboxamide]
The EC50 of the first is lower: under 0.05 µM for the first, 0.05 to 0.25 µM for the second. The first is the more potent here.

`O=C(COc1ccc(OC(F)(F)F)cc1)NC12CCC(NC(=O)c3ccc(Cl)c(F)c3)(CC1)[C@@H](O)C2` [Compound 1083, 4-chloro-3-fluoro-N-[(2S)-2-hydroxy-4-{2-[4-(trifluoromethoxy)phenoxy]acetamido}bicyclo[2.2.2]octan-1-yl]benzamide] and `O=C(COc1ccc(OC(F)(F)F)cc1)NC12CCC(NC(=O)c3cccnc3CO)(CC1)C[C@@H]2O` [Compound 1087, 2-(hydroxymethyl)-N-[(3S)-3-hydroxy-4-{2-[4-(trifluoromethoxy)phenoxy]acetamido}bicyclo[2.2.2]octan-1-yl]pyridine-3-carboxamide] cannot be ordered by EC50: over 2 µM for the first, over 2 µM for the second.

Compared with `O=C(COc1ccc(Cl)c(F)c1)NC12CC(NC(=O)c3cncc(CO)n3)(C1)C2` [Compound 1084, N-{3-[2-(4-chloro-3-fluorophenoxy)acetamido]bicyclo[1.1.1]pentan-1-yl}-6-(hydroxymethyl)pyrazine-2-carboxamide], `O=C(COc1ccc(Cl)c(F)c1)NC12CC(NC(=O)c3ncccc3CO)(C1)C2` [Compound 1091, N-{3-[2-(4-chloro-3-fluorophenoxy)acetamido]bicyclo[1.1.1]pentan-1-yl}-3-(hydroxymethyl)pyridine-2-carboxamide] is lower in EC50: 1 to 2 µM for the first, 0.25 to 1 µM for the second. The second is the more potent here.

Compared with `O=C(COc1ccc(Cl)c(F)c1)NC12CC(NC(=O)c3cc(F)cc4c3OCOC4)(C1)C2` [Compound 1085, N-{3-[2-(4-chloro-3-fluorophenoxy)acetamido]bicyclo[1.1.1]pentan-1-yl}-6-fluoro-2H,4H-1,3-benzodioxine-8-carboxamide], `O=C(COc1ccc(Cl)c(F)c1)NC12CC(NC(=O)c3ccc(Cl)c(O)c3)(C1)C2` [Compound 1089, 4-chloro-N-{3-[2-(4-chloro-3-fluorophenoxy)acetamido]bicyclo[1.1.1]pentan-1-yl}-3-hydroxybenzamide] is lower in EC50: 1 to 2 µM for the first, 0.05 to 0.25 µM for the second. The second is the more potent here.

Compared with `O=C(COc1ccc(Cl)c(F)c1)NC12CCC(NC(=O)c3cccnc3CO)(CC1)C[C@@H]2O` [Compound 1086, N-{(3S)-4-[2-(4-chloro-3-fluorophenoxy)acetamido]-3-hydroxybicyclo[2.2.2]octan-1-yl}-2-(hydroxymethyl)pyridine-3-carboxamide], `Cc1cc(OCC(=O)NC23CCC(NC(=O)c4cc(C(F)F)no4)(CC2)C[C@@H]3O)ccc1Cl` [Compound 1101, N-{(3S)-4-[2-(4-chloro-3-methylphenoxy)acetamido]-3-hydroxybicyclo[2.2.2]octan-1-yl}-3-(difluoromethyl)-1,2-oxazole-5-carboxamide] is lower in EC50: over 2 µM for the first, under 0.05 µM for the second.

First: COCc1ccc(C(=O)NC23CC(NC(=O)COc4ccc(Cl)c(F)c4)(C2)C3)cn1 [Compound 1090, N-{3-[2-(4-chloro-3-fluorophenoxy)acetamido]bicyclo[1.1.1]pentan-1-yl}-6-(methoxymethyl)pyridine-3-carboxamide]
Second: COc1cccnc1C(=O)NC12CC(NC(=O)COc3ccc(Cl)c(F)c3)(C1)C2 [Compound 1092, N-{3-[2-(4-chloro-3-fluorophenoxy)acetamido]bicyclo[1.1.1]pentan-1-yl}-3-methoxypyridine-2-carboxamide]
The EC50 of the first is lower: 0.25 to 1 µM for the first, over 2 µM for the second.

`O=C(COc1ccc(C(F)(F)F)cc1)NC12CCC(NC(=O)c3cc(C(F)F)no3)(CC1)C[C@@H]2O` [Compound 1094, 3-(difluoromethyl)-N-[(3S)-3-hydroxy-4-{2-[4-(trifluoromethyl)phenoxy]acetamido}bicyclo[2.2.2]octan-1-yl]-1,2-oxazole-5-carboxamide] and `O=C(COc1ccc(F)cc1)NC12CCC(NC(=O)c3cc(C(F)F)no3)(CC1)C[C@@H]2O` [Compound 1099, 3-(difluoromethyl)-N-{(3S)-4-[2-(4-fluorophenoxy)acetamido]-3-hydroxybicyclo[2.2.2]octan-1-yl}-1,2-oxazole-5-carboxamide] fall in the same range of EC50: 0.05 to 0.25 µM for the first, 0.05 to 0.25 µM for the second.

`O=C(COc1ccc2c(c1)OC(F)(F)O2)NC12CCC(NC(=O)c3cc(C(F)F)no3)(CC1)C[C@@H]2O` [Compound 1095, N-[(3S)-4-{2-[(2,2-difluoro-2H-1,3-benzodioxol-5-yl)oxy]acetamido}-3-hydroxybicyclo[2.2.2]octan-1-yl]-3-(difluoromethyl)-1,2-oxazole-5-carboxamide] and `Cc1ccc(OCC(=O)NC23CCC(NC(=O)c4cc(C(F)F)no4)(CC2)C[C@@H]3O)cc1C` [Compound 1097, 3-(difluoromethyl)-N-{(3S)-4-[2-(3,4-dimethylphenoxy)acetamido]-3-hydroxybicyclo[2.2.2]octan-1-yl}-1,2-oxazole-5-carboxamide] fall in the same range of EC50: 0.05 to 0.25 µM for the first, 0.05 to 0.25 µM for the second.

First: O=C(COc1ccc(Cl)c(C(F)(F)F)c1)NC12CCC(NC(=O)c3cc(C(F)F)no3)(CC1)C[C@@H]2O [Compound 1096, N-[(3S)-4-{2-[4-chloro-3-(trifluoromethyl)phenoxy]acetamido}-3-hydroxybicyclo[2.2.2]octan-1-yl]-3-(difluoromethyl)-1,2-oxazole-5-carboxamide]
Second: Cc1ccc(OCC(=O)NC23CCC(NC(=O)c4cc(C(F)F)no4)(CC2)C[C@@H]3O)cc1 [Compound 1098, 3-(difluoromethyl)-N-{(3S)-3-hydroxy-4-[2-(4-methylphenoxy)acetamido]bicyclo[2.2.2]octan-1-yl}-1,2-oxazole-5-carboxamide]
The EC50 of the first is lower: under 0.05 µM for the first, 0.05 to 0.25 µM for the second.
